Experimental data published in ChEMBL document CHEMBL1275338, “Design, synthesis and bioevaluation of dihydropyrazolo[3,4-b]pyridine and benzo[4,5]imidazo[1,2-a]pyrimidine compounds as dual KSP and Aurora-A kinase inhibitors for anti-cancer agents” (Bioorg Med Chem, 2010).

Legend:
HCT-116 [1] = assay: cells; conditions: Homo sapiens, HCT-116, 72 h
HepG2 = assay: cells; conditions: Homo sapiens, HepG2, 72 h
Description: Cytotoxicity against human HepG2 cells after 72 hrs by MTT assay

Aurora kinase A = target: T1, Aurora kinase A (Homo sapiens, UniProt O14965); assay: Inhibition of human purified recombinant aurora-A kinase
T1 sequence (O14965 whole entry): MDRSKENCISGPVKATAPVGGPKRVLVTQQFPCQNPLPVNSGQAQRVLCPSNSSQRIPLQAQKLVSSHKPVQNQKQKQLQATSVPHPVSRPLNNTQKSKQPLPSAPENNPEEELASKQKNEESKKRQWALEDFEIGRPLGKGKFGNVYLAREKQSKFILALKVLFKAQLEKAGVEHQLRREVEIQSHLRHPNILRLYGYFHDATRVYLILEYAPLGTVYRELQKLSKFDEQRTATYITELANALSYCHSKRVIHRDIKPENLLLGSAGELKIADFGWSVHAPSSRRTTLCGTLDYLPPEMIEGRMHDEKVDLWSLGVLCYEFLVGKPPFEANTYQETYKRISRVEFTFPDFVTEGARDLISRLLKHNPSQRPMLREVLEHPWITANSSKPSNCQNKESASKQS

[2] = target: T2, Kinesin-like protein KIF11 (Homo sapiens, UniProt P52732); assay: Inhibition of human Eg5 motor domain (residues 2-386) ATPase activity expressed in Escherichia coli assessed as release of inorganic phosphate after 30 mins
T2 sequence (P52732 whole entry): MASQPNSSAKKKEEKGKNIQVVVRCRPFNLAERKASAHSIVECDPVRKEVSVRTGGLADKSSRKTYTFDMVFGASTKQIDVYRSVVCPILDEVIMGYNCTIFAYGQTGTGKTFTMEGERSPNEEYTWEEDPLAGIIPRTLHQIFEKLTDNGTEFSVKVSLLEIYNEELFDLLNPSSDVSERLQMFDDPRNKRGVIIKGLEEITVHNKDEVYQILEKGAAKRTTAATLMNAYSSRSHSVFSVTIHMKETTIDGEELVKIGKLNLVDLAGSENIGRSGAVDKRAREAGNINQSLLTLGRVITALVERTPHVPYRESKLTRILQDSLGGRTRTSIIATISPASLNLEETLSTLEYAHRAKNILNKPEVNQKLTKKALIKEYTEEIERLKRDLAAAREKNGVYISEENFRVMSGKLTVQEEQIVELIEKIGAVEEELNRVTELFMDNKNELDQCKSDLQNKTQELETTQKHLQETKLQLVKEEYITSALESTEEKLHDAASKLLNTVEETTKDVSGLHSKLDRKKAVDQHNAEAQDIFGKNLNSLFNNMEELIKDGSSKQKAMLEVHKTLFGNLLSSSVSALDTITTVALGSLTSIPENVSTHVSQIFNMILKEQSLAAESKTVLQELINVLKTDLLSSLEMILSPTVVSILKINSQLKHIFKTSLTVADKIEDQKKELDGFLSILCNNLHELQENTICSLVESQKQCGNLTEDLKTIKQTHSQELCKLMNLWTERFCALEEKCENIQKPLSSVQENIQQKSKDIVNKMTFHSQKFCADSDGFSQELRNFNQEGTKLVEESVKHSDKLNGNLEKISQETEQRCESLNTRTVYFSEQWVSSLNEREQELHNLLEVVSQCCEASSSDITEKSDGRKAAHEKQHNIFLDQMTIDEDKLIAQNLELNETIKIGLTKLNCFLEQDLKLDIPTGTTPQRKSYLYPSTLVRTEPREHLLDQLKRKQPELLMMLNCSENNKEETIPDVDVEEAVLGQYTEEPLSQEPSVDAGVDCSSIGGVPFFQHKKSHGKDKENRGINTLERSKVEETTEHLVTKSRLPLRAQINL

A2780 = assay: cells; conditions: Homo sapiens, A2780, 72 h
Description: Cytotoxicity against human A2780 cells after 72 hrs by MTT assay

HCT-116 [3] = assay: Ratio of CPUYL064 IC50 to compound IC50 for human HCT116 cells

| SMILES | IC50 (HCT-116 [1]) | IC50 (HepG2) | IC50 (Aurora kinase A) | IC50 [2] | IC50 (A2780) | Ratio IC50 (HCT-116 [3]) |
| --- | --- | --- | --- | --- | --- | --- |
| CCC(c1nc2cc(Cl)ccc2c(=O)n1Cc1ccccc1)N(CCCN(C)C)C(=O)c1ccc(Br)cc1 (configuration not stated) [CK0106023] | 0.94 µM | 2.1 µM | > 50 µM | 0.029 µM | 3 µM | – |
| CN(C)c1ccc(-c2nc3cc(Cl)cnc3[nH]2)cc1 | 4.71 µM | 5.85 µM | 4.97 µM | 40.2 µM | 4.26 µM | – |
| CC1=C(C(=O)Nc2ccc([N+](=O)[O-])cc2)C(c2ccco2)n2c(nc3ccccc32)N1 (configuration not stated) | 11.5 µM | 13.5 µM | 3 µM | 20.9 µM | 3.05 µM | – |
| CC1=C(C(=O)Nc2ccc(C(F)(F)F)cc2)C(c2ccco2)n2c(nc3ccccc32)N1 (configuration not stated) | > 50 µM | – | 1.32 µM | 3.32 µM | – | – |
| COc1ccc(NC(=O)C2=C(C)Nc3nc4ccccc4n3C2c2ccco2)cc1 (configuration not stated) | 8.71 µM | 4.97 µM | 7.58 µM | 2.46 µM | 9.34 µM | – |
| CC1=C(C(=O)Nc2ccc([N+](=O)[O-])cc2)C(c2cccs2)c2c[nH]nc2N1 (configuration not stated) | – | – | – | 0.82 µM | – | – |
| CCOC(=O)C1=C(C)NC(=S)NC1c1cccc(O)c1 (configuration not stated) [MONASTROL] | > 50 µM | – | > 50 µM | 5.47 µM | – | – |
| COc1ccc(NC(=O)C2=C(C)Nc3n[nH]cc3C2c2cccs2)cc1 (configuration not stated) | – | – | – | 0.0025 µM | – | – |
| CC1=C(C(=O)Nc2ccc(C(F)(F)F)cc2)C(c2cccs2)c2c[nH]nc2N1 (configuration not stated) | – | – | – | 0.32 µM | – | – |
| CC1=C(C(=O)Nc2ccc(Cl)cc2)C(c2ccccc2)C2=C(CC(C)(C)CC2=O)N1 (configuration not stated) | – | – | – | 0.18 µM | – | – |
| CC1=C(C(=O)Nc2ccc(F)c(Cl)c2)C(c2ccco2)n2c(nc3ccccc32)N1 (configuration not stated) | 10.9 µM | 26 µM | 5.73 µM | 0.96 µM | > 50 µM | – |
| CC1=C(C(=O)Nc2ccc(F)cc2)C(c2ccco2)c2c[nH]nc2N1 (configuration not stated) | – | – | – | 10.4 µM | – | – |
| CC1=C(C(=O)Nc2ccc(C(F)(F)F)cc2)C(c2ccccc2)c2c[nH]nc2N1 (configuration not stated) | – | – | – | 0.4 µM | – | – |

Further lines, with some results ahead:

| IC50 (HCT-116 [1]) | IC50 (HepG2) | IC50 (Aurora kinase A) | IC50 [2] | IC50 (A2780) | SMILES | Ratio IC50 (HCT-116 [3]) |
| --- | --- | --- | --- | --- | --- | --- |
| – | – | – | 0.14 µM | – | CC1=C(C(=O)Nc2ccc(F)cc2)C(c2ccccc2)c2c[nH]nc2N1 (configuration not stated) | – |
| – | – | – | 0.44 µM | – | CC1=C(C(=O)Nc2ccc(F)c(Cl)c2)C(c2cccs2)c2c[nH]nc2N1 (configuration not stated) | – |
| – | – | – | 0.0011 µM | – | COc1ccc(NC(=O)C2=C(C)Nc3n[nH]cc3C2c2ccco2)cc1 (configuration not stated) | – |
| – | – | – | 0.17 µM | – | CC1=C(C(=O)Nc2ccc(F)c(Cl)c2)C(c2ccccc2)c2c[nH]nc2N1 (configuration not stated) | – |
| – | – | – | 2.82 µM | – | COc1ccc(NC(=O)C2=C(C)Nc3n[nH]cc3C2c2ccccc2)cc1 (configuration not stated) | – |
| – | – | – | 0.4 µM | – | CC1=C(C(=O)Nc2ccc(F)c(Cl)c2)C(c2ccco2)c2c[nH]nc2N1 (configuration not stated) | – |
| – | – | – | 1.06 µM | – | CC1=C(C(=O)Nc2ccc(C(F)(F)F)cc2)C(c2ccco2)c2c[nH]nc2N1 (configuration not stated) | – |
| – | – | – | 0.2 µM | – | CC1=C(C(=O)Nc2ccc([N+](=O)[O-])cc2)C(c2ccccc2)c2c[nH]nc2N1 (configuration not stated) | – |
| 4.96 µM | 7.38 µM | 6.15 µM | 5.65 µM | > 50 µM | CC1=C(C(=O)Nc2ccc(F)cc2)C(c2ccco2)n2c(nc3ccccc32)N1 (configuration not stated) | 2.5 |
| – | – | – | 2.76 µM | – | CC1=C(C(=O)Nc2ccc([N+](=O)[O-])cc2)C(c2ccco2)c2c[nH]nc2N1 (configuration not stated) | – |
